Assay [1] addresses T1, Interleukin-1 receptor-associated kinase 3 (Homo sapiens) (UniProt Q9Y616).
T1 sequence (whole entry): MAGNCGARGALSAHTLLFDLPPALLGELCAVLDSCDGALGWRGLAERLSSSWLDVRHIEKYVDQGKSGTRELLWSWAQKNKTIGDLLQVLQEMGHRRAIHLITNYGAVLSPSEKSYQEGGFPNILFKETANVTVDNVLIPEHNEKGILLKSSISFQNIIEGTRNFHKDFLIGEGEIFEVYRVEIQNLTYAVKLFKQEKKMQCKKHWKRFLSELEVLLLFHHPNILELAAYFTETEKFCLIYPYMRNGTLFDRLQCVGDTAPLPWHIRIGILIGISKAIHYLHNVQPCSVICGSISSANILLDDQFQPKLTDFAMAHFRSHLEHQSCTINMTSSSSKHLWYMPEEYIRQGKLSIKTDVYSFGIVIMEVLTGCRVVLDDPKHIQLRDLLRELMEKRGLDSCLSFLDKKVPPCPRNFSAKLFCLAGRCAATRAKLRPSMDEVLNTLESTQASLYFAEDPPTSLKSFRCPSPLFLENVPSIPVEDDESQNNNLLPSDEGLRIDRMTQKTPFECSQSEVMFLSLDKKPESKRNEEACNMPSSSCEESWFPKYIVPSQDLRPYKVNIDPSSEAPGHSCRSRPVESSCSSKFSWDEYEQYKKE
Particulars: at 10 µM.

The target of assay [2] is Protein-tyrosine kinase 6 (Homo sapiens, UniProt Q13882). Kind of assay: Selectivity interaction (KinomeScan (DiscoverX)) EUB0001079a PTK6. Particulars: at 1 µM.
Chain of Protein-tyrosine kinase 6 (Q13882 whole entry, looked up): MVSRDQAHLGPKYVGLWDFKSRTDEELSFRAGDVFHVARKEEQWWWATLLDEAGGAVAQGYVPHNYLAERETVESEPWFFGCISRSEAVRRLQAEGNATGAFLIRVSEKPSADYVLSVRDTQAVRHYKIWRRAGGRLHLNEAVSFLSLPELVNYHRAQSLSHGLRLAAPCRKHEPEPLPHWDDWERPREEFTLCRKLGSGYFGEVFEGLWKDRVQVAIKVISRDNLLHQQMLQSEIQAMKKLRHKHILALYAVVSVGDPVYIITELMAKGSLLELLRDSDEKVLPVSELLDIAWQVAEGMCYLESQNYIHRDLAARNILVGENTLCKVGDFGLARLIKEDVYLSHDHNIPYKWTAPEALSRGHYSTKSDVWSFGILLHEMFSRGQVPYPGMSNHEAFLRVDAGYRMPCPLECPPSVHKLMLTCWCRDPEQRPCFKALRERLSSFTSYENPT
For assay [3], the target named is T2, Inhibitor of nuclear factor kappa-B kinase subunit beta (Homo sapiens) (UniProt O14920).
T2 sequence (whole entry): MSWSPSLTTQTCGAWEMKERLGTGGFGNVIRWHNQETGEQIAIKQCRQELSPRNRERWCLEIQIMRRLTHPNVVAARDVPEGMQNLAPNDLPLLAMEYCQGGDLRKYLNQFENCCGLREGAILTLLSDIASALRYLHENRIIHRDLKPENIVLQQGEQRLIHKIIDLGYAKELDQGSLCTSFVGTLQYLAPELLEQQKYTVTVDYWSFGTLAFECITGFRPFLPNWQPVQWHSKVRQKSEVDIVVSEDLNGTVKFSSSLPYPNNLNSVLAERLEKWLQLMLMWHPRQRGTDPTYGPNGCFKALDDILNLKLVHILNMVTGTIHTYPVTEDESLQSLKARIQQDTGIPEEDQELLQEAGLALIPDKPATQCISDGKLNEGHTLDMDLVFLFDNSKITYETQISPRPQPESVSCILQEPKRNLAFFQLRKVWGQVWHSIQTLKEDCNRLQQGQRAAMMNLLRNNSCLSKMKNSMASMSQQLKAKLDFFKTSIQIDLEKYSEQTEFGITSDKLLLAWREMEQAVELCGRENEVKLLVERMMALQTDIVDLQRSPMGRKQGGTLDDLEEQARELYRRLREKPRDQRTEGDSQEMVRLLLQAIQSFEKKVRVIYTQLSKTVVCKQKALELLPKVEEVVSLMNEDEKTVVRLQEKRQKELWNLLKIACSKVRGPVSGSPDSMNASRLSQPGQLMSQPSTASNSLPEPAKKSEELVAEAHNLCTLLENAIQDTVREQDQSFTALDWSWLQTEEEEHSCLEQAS
The assay can be described thus: Selectivity interaction (KinomeScan (DiscoverX)) EUB0000092b IKBKB. The conditions noted are these: at 10 µM.

Assay [4] has as its target T3, Cyclin-dependent kinase 11A (Homo sapiens) (UniProt Q9UQ88).
T3 sequence (whole entry): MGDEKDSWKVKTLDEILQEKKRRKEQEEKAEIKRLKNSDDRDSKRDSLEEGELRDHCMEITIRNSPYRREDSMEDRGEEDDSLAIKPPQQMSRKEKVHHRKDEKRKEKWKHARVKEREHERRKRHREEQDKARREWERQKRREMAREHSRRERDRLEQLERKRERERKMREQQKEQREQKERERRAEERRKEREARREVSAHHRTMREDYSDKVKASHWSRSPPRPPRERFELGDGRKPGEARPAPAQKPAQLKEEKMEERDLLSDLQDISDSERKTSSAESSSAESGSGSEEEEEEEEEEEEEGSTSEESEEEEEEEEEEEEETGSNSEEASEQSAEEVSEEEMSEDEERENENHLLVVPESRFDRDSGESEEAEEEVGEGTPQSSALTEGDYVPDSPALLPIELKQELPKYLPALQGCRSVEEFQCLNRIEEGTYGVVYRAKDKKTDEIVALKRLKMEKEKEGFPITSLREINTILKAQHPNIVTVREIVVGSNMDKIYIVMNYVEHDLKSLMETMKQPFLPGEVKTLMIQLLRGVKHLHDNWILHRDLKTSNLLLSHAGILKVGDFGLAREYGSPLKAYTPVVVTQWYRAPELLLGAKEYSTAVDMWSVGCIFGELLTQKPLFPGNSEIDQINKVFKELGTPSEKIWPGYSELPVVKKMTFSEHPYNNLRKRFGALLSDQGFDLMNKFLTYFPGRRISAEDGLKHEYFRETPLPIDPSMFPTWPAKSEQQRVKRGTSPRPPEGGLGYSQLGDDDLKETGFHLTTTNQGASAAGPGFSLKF
The assay can be described thus: Selectivity interaction (KinomeScan (DiscoverX)) EUB0001049a CDK11A. Particulars: at 1 µM.

In assay [5] the target is Ribosomal protein S6 kinase alpha-2 (Homo sapiens) (UniProt Q15349). Kind of assay: Selectivity interaction (KinomeScan (DiscoverX)) EUB0000655a RPS6KA2. The conditions noted are these: at 10 µM.
Chain of Ribosomal protein S6 kinase alpha-2 (Homo sapiens) (Q15349 whole entry): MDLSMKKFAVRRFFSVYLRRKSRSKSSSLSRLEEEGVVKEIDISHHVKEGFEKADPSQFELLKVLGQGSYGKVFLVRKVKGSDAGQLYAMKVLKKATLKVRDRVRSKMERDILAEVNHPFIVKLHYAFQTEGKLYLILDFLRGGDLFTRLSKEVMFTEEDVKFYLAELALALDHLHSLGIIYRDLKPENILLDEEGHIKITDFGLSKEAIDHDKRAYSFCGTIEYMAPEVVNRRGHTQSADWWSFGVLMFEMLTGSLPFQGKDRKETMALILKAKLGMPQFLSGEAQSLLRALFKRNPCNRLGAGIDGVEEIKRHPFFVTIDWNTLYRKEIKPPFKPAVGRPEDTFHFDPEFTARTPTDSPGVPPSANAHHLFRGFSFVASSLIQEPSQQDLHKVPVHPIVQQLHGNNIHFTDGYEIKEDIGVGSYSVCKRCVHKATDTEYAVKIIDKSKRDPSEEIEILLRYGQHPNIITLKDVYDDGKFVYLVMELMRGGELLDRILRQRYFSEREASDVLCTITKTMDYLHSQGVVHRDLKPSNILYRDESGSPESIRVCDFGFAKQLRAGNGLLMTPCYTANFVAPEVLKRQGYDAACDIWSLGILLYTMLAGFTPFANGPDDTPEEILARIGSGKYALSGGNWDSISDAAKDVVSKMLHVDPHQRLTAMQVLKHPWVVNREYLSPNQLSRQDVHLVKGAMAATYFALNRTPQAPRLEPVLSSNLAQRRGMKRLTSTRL
For assay [6], the target named is Mitogen-activated protein kinase 6 (Homo sapiens) (UniProt Q16659). Kind of assay: Selectivity interaction (KinomeScan (DiscoverX)) EUB0000666a MAPK6. Particulars: at 10 µM.
Chain of Mitogen-activated protein kinase 6 (Homo sapiens) (Q16659 whole entry): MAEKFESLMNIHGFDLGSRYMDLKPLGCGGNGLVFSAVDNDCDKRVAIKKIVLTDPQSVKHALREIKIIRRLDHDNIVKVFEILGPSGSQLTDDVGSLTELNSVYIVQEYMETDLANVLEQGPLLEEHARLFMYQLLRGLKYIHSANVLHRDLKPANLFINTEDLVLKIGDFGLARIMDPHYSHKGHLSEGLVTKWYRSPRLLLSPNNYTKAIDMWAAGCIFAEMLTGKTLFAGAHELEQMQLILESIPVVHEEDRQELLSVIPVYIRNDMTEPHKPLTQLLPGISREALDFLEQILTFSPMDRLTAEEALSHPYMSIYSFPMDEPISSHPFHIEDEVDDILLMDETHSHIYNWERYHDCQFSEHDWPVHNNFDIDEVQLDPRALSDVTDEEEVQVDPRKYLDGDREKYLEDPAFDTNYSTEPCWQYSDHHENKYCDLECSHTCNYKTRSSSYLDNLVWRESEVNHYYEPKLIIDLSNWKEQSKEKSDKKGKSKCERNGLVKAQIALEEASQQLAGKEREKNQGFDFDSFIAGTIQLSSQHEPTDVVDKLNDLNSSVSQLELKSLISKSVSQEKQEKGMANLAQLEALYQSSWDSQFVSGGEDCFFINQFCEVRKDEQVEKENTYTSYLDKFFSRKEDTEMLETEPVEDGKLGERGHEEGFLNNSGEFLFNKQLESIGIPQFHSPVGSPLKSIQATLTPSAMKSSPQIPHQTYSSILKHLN
The target in assay [7] is SRSF protein kinase 1 (Homo sapiens, UniProt Q96SB4). The assay can be described thus: Selectivity interaction (ActivX KiNativ screen (kinase selectivity in THP-1 cell lysates)) EUB0000639a SRPK1. It counts as subcellular. Particulars: lysate.
Chain of SRSF protein kinase 1 (Q96SB4 whole entry): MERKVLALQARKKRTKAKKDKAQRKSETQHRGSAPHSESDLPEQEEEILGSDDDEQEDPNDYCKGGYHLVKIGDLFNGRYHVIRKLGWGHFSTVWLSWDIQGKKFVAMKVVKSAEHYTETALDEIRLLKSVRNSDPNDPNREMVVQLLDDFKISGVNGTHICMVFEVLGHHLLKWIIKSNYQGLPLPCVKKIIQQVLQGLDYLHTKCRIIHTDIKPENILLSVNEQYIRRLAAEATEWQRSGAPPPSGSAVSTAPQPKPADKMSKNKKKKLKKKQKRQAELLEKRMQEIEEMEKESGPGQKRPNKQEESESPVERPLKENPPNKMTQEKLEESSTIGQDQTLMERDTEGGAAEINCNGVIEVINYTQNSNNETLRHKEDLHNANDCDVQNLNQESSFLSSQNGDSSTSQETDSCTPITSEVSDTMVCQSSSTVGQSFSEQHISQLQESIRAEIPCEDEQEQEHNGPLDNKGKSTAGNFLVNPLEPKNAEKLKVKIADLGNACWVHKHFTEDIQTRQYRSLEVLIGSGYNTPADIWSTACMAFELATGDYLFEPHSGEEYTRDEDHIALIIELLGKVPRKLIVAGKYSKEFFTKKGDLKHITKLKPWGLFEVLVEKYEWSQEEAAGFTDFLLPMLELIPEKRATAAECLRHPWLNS
Assay [8] deals with Calcium/calmodulin-dependent protein kinase type II subunit delta (Homo sapiens) (UniProt Q13557). Kind of assay: Selectivity interaction (ActivX KiNativ screen (kinase selectivity in THP-1 cell lysates)) EUB0000639a CAMK2D. The format is subcellular. Particulars: lysate, at 5 µM.
Chain of Calcium/calmodulin-dependent protein kinase type II subunit delta (Homo sapiens) (Q13557 whole entry): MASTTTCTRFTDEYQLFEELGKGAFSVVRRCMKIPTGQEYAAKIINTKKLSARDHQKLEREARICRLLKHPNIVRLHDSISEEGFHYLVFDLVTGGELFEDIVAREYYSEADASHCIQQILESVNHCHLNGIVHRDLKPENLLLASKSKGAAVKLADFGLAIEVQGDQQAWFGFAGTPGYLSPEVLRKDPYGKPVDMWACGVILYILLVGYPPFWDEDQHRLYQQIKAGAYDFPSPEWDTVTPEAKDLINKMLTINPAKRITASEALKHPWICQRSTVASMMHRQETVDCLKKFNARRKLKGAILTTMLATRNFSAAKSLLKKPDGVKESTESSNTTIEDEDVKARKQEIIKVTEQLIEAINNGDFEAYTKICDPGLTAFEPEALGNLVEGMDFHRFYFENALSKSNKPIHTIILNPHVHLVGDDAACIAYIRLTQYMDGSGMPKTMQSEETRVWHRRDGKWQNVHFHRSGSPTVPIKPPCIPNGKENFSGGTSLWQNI
The target of assay [9] is Calcium/calmodulin-dependent protein kinase type II subunit gamma (Homo sapiens) (UniProt Q13555). Kind of assay: Selectivity interaction (Kinase panel (KiNativ target engagement assay in Jurkat cells)) EUB0001635a CAMK2G. It counts as cell-based. Particulars: Selectivity number of off-targets 0.0, Selectivity number of targets 233.0, Source Knowledge https://www.sciencedirect.com/science/article/pii/S2451945619300674?via%3Dihub, at 1 µM.
Chain of Calcium/calmodulin-dependent protein kinase type II subunit gamma (Homo sapiens) (Q13555 whole entry): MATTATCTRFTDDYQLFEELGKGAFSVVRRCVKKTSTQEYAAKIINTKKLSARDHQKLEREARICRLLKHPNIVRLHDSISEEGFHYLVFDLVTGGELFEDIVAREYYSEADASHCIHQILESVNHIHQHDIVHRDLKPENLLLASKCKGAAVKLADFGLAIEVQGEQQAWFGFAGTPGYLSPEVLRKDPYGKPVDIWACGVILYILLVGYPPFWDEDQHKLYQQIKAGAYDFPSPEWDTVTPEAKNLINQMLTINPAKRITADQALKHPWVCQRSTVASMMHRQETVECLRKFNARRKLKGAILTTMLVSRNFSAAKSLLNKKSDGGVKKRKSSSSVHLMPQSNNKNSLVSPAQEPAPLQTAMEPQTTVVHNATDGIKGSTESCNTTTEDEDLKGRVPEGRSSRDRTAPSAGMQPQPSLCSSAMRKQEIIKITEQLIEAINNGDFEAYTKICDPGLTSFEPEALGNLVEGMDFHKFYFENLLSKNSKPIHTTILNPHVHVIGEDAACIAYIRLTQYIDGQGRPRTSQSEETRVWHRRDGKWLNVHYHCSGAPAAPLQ

The structures appear in SMILES notation.

This note sets out measurements from ChEMBL document CHEMBL5465560, “Selectivity Literature for EUbOPEN Chemogenomic Library” (2024).

`CCN(CC)CCCCNc1ncc2cc(-c3cc(OC)cc(OC)c3)c(NC(=O)NC(C)(C)C)nc2n1` showed a % of control in assay [1] of 100%.
With `Nc1cnc(N2CCc3cc(S(=O)(=O)Nc4c(F)cc(Cl)cc4F)cc(N4CCCC4=O)c32)nc1` [TP-020n], the % of control in [2] is 100%.
In assay [3], `CCC(=O)N1CCN(c2ccc(-n3c(=O)ccc4cnc5ccc(-c6cnc7ccccc7c6)cc5c43)cc2C(F)(F)F)CC1` showed a % of control of 61%.
As for `COc1cc(Nc2nc(C)cc(-c3cnn4nc(OC)ccc34)n2)cc(C(F)(F)F)c1`, the % of control in assay [4] came out at 83%.
For `CN(C)CCOc1ccc(-c2nc(-c3ccncc3)c(-c3ccc4c(c3)CC/C4=N\O)[nH]2)cc1`, the % of control in assay [5] came to 61%.
Take `O=C(NOC[C@H](O)CO)c1ccc(F)c(F)c1Nc1ccc(I)cc1F`: in assay [6], the % of control was determined as 83%.
As to `CC[C@@H]1[C@H](F)C(=O)N[C@@H]1COc1nccc2cc(C(N)=O)c(OC)cc12` [ZIMLOVISERTIB], the % of inhibition in [7] (at 0.01 µM) was 6.9%; in [7] (at 0.04 µM), -23%; in assay [7] (at 0.2 µM), -5.5%; in assay [7] (at 1 µM) it was 11.7%; in assay [7] (at 5 µM), 19.9%; in assay [8] it was 56.2%.
`C=CC(=O)Nc1ccc(C(=O)Nc2[nH]nc3c2CN(C(=O)N[C@H](CN(C)C)c2ccccc2)C3(C)C)cc1`: the % of engagement in assay [9] is 35.8%.
